These results are taken from US20170050957A1, “4-AMINO-6-(HETEROCYCLIC)PICOLINATES AND 6-AMINO-2-(HETEROCYCLIC)PYRIMIDINE-4-CARBOXYLATES AND THEIR USE AS HERBICIDES” (Dow AgroSciences LLC, priority 2013, published 2017).

Common to all, as to assay: Post-emergent Test I herbicidal activity
Holding throughout (assay type): in vivo

For assay [1], the system named is barnyardgrass (Echinochloa crus-galli). On the procedure:
(§1) Post-emergent Test I Seeds test species were obtained from commercial suppliers and planted into a 5″-round pot containing soil-less media mix (metro-mix 360®, Sun Gro Horticulture). Postemergence treatments were planted 8-12 days prior to application and cultured in a greenhouse equipped with supplemental light sources to provide a 16 h photoperiod at 24-29° C. All pots were surface irrigated. Approximately 10 milligrams (mg) of each compound were dissolved in 1.3 mL acetone-DMSO (97:3, v/v) and diluted with 4.1 mL water-isopropanol-crop oil concentrate (78:20:2, v/v/v) containing 0.02% Triton X-155. Treatments were serial diluted with the above formulation solvent to provide 1.85, 0.926, 0.462 and 0.231 mg/mL of test compound delivered in 2.7 mL/pot (roughly equivalent to 4.0, 2.0, 1.0, and 0.5 kg/ha, respectively). Formulated compounds were applied using a DeVilbiss® compressed air sprayer at 2-4 psi. Following treatment, pots were returned to the greenhouse for the duration of the experiment. All pots were sub-irrigated as need to provide optimum growing conditions. All pots were fertilized one time per week by subirrigating with Peters Peat-Lite Special® fertilizer (20-10-20). Phytotoxicity ratings were obtained 10 days after treatment postemergence applications. All evaluations were made visually on a scale of 0 to 100 where 0 represents no activity and 100 represents complete plant death. Visual assessments of plant injury were made based on growth reduction, discoloration, leaf deformity and necrosis

In assay [2] the test system is giant foxtail (Setaria faberi). On the procedure:
as §1

The test system of assay [3] is sunflower (Helianthus annuus). On the procedure: as §1
Assay [4] concerns wild oats (Avena fatua). On the procedure: as §1

As for `COC(=O)c1nc(-c2ccc3ccn(C)c3c2)c(F)c(N)c1Cl` [Compound 1.10], the “Visual Growth Reduction (%) 10 Days After Application ECHCG” value in assay [1] (3.96 Kg ai/ha) is reported as “G (0-29)”. In assay [2] (3.96 Kg ai/ha), the “Visual Growth Reduction (%) 10 Days After Application SETFA” value is given as “G (0-29)”. The “Visual Growth Reduction (%) 10 Days After Application HELAN” value in assay [3] (3.96 Kg ai/ha) is recorded as “A (95-100)”. Besides, in assay [4] (3.96 Kg ai/ha), the “Visual Growth Reduction (%) 10 Days After Application AVEFA” value is reported as “G (0-29)”.

For the molecule `COC(=O)c1nc(-c2ccc3sccc3c2)cc(N)c1Cl` [Compound 3.05], the “Visual Growth Reduction (%) 10 Days After Application ECHCG” value in assay [1] (4 Kg ai/ha) was “A (95-100)”. Further, the “Visual Growth Reduction (%) 10 Days After Application SETFA” value in assay [2] (4 Kg ai/ha) is recorded as “A (95-100)”. For the same molecule, the “Visual Growth Reduction (%) 10 Days After Application HELAN” value in assay [3] (4 Kg ai/ha) is recorded as “B (85-94)”. In addition, in assay [4] (4 Kg ai/ha), the “Visual Growth Reduction (%) 10 Days After Application AVEFA” value is “C (75-84)”.

As to `Nc1c(F)c(-c2cccc3cc[nH]c23)nc(C(=O)O)c1Cl` [Compound 1.48], in assay [1] (4 Kg ai/ha), the “Visual Growth Reduction (%) 10 Days After Application ECHCG” value is listed as “G (0-29)”. Moreover, the “Visual Growth Reduction (%) 10 Days After Application SETFA” value in assay [2] (4 Kg ai/ha) is reported as “G (0-29)”. Moreover, the “Visual Growth Reduction (%) 10 Days After Application HELAN” value in assay [3] (4 Kg ai/ha) is on record as “C (75-84)”. Further, the “Visual Growth Reduction (%) 10 Days After Application AVEFA” value in assay [4] (4 Kg ai/ha) is listed as “G (0-29)”.
